Experiment [1] deals with wild-type HIV-1. Particulars: read-out: IC50 (50% inhibitory concentration), MT-4 cells, cited from earlier work.
Experiment [2] concerns AZT-resistant strain derived from wild-type HIV-1. Particulars: read-out: IC50 (50% inhibitory concentration); second passage of the AZT-resistant progeny, MT-4 cells; cited from earlier work.
Experiment [3] concerns the target HIV-1 protease, wild type, expressed as part of truncated HIV-1 polyprotein (Human immunodeficiency virus type 1 group M subtype B, UniProt P04585). It counts as cell-based.
Excerpt: Plasmid pART-2 was digested with Bgl II and Eco RI to obtain a nucleotide sequence coding for a portion of the HIV-1 polyprotein (i.e., the HIV-1 protease protein, the HIV-1 reverse transcriptase protein and a portion of the HIV-1 integrase protein). The isolated 2.3 kb fragment was then inserted into the pTrcHisC plasmid (obtained from Invitrogen, San Diego, Calif.), which had previously been digested with the same restriction enzymes, to yield the plasmid pL124.23. The pL124.23 plasmid contains upstream sequences coding for a series of six histidine residues fused to a gene 10 segment, all of which are in frame with the inserted fragment. An enterokinase cleavage recognition site is also located between gene 10 and the truncated polyprotein. The inserted sequences, as well as the described upstream sequences are all under control of a T7 promoter. The T7 polymerase in the host cell (Top 10, Invitrogen) is inducible with IPTG.

Like-named read-outs stand apart in the source and are kept apart here.

Turning to `Nc1nc(=O)n([C@@H]2CS[C@H](CO)O2)cc1F` [FTC], the IC50 in experiment [1] (fourth passage of the wild-type progeny) is more than 50 µM; in experiment [1] (passage 6 virus, tested at higher compound concentrations), more than 250 µM; in experiment [2], more than 50 µM.
Take `CC(C)(C)NC(=O)[C@@H]1CN(Cc2cccnc2)CCN1C[C@@H](O)C[C@@H](Cc1ccccc1)C(=O)N[C@H]1c2ccccc2C[C@H]1O` [L-735,524]: the “processing of the polyprotein by HIV protease” value in experiment [3] is given as “did not allow processing of the polyprotein”.

Values taken from patent US6063562A (priority 1995, dated 2000).
